Experiments:
Ba/F3 ERBB2 YVMA = Ba/F3 ERBB2 YVMA (Homo sapiens, UniProt P04626, DUP772-775, cells depend on it); assay: Cell viability assay (CellTiter Glo) in Ba/F3 cells engineered to express ERBB2 YVMA; assay type: cell-based, mouse; conditions: Ba/F3 cells expressing human ERBB2 YVMA mutant, 72 hours, % viability, read-out: Ba/F3 ERBB2 YVMA IC50
In short: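 IL-3-independent mouse Ba/F3 line stably transduced with human ERBB2 YVMA, seeded at 3000 cells/well, exposed to serially diluted compound (≤0.1% DMSO) for 72 h at 37° C. ATP read by CellTiter Glo luminescence, normalised to DMSO and media-only controls; sigmoidal nonlinear regression fit.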

[1] = biological target: T1, phosphorylated ERBB2 (pERBB2) (Homo sapiens, UniProt P04626); assay: Detection of phosphorylated ERBB2 (pERBB2) by ELISA in BT-474 cells; assay type: cell-based; conditions: four hour incubation with compound
T1 construct: endogenous in cells; host or cells: BT-474
T1 sequence (P04626 23-1255): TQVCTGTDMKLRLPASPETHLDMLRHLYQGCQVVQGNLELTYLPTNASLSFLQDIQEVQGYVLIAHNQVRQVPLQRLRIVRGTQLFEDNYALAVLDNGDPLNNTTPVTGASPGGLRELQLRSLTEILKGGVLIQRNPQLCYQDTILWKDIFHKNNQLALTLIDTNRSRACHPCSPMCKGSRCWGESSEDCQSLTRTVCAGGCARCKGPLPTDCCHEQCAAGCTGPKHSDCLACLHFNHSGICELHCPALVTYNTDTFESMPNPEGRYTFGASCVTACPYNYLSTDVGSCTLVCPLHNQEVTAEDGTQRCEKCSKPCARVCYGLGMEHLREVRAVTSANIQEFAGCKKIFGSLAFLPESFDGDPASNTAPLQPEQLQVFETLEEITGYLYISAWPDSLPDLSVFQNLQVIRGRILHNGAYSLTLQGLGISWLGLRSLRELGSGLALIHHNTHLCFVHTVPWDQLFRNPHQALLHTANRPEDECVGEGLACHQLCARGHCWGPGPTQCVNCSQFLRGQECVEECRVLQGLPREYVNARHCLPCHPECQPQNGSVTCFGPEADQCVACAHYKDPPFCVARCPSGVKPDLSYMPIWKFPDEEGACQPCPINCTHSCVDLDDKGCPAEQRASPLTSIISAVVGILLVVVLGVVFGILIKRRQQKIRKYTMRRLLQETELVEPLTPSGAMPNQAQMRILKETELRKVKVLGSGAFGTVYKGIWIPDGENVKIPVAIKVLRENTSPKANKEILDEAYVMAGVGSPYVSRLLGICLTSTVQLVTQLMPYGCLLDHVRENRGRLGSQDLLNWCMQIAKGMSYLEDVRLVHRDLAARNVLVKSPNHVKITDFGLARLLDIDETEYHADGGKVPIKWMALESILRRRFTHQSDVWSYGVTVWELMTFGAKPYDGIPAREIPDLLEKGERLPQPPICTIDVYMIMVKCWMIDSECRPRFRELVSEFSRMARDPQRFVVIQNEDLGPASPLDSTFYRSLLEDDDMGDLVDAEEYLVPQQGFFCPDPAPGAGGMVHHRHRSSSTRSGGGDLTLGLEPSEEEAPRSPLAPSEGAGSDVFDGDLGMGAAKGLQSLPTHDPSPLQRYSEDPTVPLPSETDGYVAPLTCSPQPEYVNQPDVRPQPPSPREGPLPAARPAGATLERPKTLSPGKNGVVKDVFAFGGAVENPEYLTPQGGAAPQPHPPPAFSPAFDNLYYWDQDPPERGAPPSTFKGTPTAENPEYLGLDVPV
In short: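 BT-474 cells treated 4 h at 37 °C, 5% CO2 with four-fold dilutions (10 μM to 0.01 nM final). Lysates analysed by ELISA for pERBB2, TMB read at OD 450 nm. % relative activity normalised to no-cell (low) and 0.1% DMSO-treated (high) controls.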

[2] = biological target: T2, phosphorylated EGFR (pEGFR) (Homo sapiens, UniProt P00533); assay: Detection of phosphorylated EGFR (pEGFR) in EGF-stimulated A431 cells (AlphaLISA); assay type: cell-based; conditions: A431 cells (10% FBS), 4 hours incubation, EGF 30 ng/mL for 10 minutes
T2 construct: performed to measure phosphorylated EGFR levels using A431 cells; endogenous in cells; host or cells: A431
T2 sequence (P00533 25-1210): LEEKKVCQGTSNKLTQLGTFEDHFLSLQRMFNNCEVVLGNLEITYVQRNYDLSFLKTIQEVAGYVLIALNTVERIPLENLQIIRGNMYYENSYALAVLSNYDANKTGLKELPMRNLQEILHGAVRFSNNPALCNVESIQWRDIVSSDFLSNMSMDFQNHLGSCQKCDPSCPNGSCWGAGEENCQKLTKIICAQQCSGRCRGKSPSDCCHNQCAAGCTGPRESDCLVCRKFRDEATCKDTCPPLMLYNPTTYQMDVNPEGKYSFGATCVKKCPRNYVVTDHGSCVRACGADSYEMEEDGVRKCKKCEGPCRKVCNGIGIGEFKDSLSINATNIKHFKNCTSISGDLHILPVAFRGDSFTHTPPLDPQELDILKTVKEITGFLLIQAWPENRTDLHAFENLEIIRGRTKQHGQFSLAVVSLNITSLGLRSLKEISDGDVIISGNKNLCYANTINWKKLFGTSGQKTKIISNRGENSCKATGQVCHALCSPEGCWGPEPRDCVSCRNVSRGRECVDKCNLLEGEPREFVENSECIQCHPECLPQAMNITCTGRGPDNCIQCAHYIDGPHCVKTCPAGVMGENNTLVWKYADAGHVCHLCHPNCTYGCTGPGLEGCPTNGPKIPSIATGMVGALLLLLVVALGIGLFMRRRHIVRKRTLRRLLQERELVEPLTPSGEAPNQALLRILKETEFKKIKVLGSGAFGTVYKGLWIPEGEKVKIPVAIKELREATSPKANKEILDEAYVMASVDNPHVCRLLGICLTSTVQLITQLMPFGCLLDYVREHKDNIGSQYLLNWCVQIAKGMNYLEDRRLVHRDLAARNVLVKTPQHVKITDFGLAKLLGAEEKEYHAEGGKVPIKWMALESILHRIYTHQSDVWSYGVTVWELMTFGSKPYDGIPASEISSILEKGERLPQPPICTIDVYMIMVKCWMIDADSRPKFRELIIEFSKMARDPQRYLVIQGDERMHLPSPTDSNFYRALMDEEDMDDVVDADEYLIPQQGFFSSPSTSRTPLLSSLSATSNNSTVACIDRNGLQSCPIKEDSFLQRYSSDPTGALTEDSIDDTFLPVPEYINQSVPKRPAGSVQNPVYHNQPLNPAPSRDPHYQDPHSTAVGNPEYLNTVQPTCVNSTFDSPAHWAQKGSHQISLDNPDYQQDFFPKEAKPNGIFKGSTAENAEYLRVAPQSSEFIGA
In short: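 Cells in 10% FBS treated with compound 4 h at 37° C., then stimulated 10 min with 30 ng/mL EGF, lysed, and pEGFR measured by AlphaLISA. Inhibition normalized to DMSO and staurosporine controls; IC50 from four-parameter logistic fit.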

Sequence of Ba/F3 ERBB2 YVMA (P04626 with tags, fused parts or gaps DUP772-775): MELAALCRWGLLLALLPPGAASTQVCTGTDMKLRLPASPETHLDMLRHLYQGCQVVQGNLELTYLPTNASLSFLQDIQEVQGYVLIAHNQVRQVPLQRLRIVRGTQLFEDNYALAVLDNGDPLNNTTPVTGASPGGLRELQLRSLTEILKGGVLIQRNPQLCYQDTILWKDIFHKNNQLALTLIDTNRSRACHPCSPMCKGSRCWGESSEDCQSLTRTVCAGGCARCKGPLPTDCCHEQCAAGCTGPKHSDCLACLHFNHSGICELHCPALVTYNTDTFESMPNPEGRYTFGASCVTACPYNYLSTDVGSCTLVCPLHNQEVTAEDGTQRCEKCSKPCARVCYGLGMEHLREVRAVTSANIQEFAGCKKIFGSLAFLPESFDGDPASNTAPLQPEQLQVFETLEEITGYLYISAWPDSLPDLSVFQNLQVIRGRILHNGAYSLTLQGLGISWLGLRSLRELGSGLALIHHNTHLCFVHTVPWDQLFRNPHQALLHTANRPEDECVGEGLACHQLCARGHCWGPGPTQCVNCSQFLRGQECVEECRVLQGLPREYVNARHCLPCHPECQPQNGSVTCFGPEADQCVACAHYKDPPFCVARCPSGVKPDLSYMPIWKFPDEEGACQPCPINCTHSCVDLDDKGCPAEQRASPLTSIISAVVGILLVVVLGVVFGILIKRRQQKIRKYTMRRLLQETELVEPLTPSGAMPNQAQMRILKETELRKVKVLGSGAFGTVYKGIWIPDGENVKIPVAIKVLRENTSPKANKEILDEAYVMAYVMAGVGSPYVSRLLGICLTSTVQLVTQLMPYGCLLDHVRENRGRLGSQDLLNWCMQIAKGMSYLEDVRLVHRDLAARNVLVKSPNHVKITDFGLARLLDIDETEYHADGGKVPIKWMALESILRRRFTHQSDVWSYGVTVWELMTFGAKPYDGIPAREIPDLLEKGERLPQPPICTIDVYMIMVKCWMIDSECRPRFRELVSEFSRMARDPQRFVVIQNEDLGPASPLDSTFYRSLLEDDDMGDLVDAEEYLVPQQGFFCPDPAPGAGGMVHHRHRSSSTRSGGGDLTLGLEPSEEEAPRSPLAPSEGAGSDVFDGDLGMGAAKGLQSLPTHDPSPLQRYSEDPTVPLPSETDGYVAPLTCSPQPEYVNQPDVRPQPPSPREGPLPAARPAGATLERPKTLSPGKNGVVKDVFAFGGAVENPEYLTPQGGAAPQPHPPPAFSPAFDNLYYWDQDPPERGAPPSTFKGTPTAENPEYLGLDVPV

| Compound | IC50 [1] | IC50 [2] | GI50 (Ba/F3 ERBB2 YVMA) |
| --- | --- | --- | --- |
| C=CC(=O)N1CCN(c2cc3c(Nc4ccc(Oc5ccc(C(=O)NCC(C)(C)C)cc5)c(C)c4)ncnc3cn2)CC1 [Compound 39, N-(2,2-dimethylpropyl)-4-[2-methyl-4-({6-[4-(prop-2-enoyl)piperazin-1-yl]pyrido[3,4-d]pyrimidin-4-yl}amino)phenoxy]benzamide] | 59.9 nM | 3360 nM | 53 nM |
| C=CC(=O)N1CCC(Nc2ccc3ncnc(Nc4ccc(Oc5ccn6ncnc6c5)c(C)c4)c3n2)CC1 [Compound 40, 1-[4-({4-[(3-methyl-4-{[1,2,4]triazolo[1,5-a]pyridin-7-yloxy}phenyl)amino]pyrido[3,2-d]pyrimidin-6-yl}amino)piperidin-1-yl]prop-2-en-1-one] | 6.1 nM | 22 nM | 5.81 nM |
| C=CC(=O)N1CCC[C@H](Nc2ccc3ncnc(Nc4ccc(Oc5ccn6ncnc6c5)c(C)c4)c3n2)C1 [Compound 41, (S)-1-(3-((4-((4-([1,2,4]triazolo[1,5-a]pyridin-7-yloxy)-3-methylphenyl)amino)pyrido[3,2-d]pyrimidin-6-yl)amino)piperidin-1-yl)prop-2-en-1-one] | 18.1 nM | 1590 nM | 19.7 nM |
| C=CC(=O)N1CCC[C@@H](Nc2ccc3ncnc(Nc4ccc(Oc5ccn6ncnc6c5)c(C)c4)c3n2)C1 [Compound 42, 1-[(3R)-3-({4-[(3-methyl-4-{[1,2,4]triazolo[1,5-a]pyridin-7-yloxy}phenyl)amino]pyrido[3,2-d]pyrimidin-6-yl}amino)piperidin-1-yl]prop-2-en-1-one] | 29.7 nM | > 10000 nM | 219 nM |
| C=CC(=O)N1CC[C@H](Nc2ccc3ncnc(Nc4ccc(Oc5ccn6ncnc6c5)c(C)c4)c3n2)C1 [Compound 43, 1-[(3S)-3-({4-[(3-methyl-4-{[1,2,4]triazolo[1,5-a]pyridin-7-yloxy}phenyl)amino]pyrido[3,2-d]pyrimidin-6-yl}amino)pyrrolidin-1-yl]prop-2-en-1-one] | 5.11 nM | 61.2 nM | 3.93 nM |
| C=CC(=O)N1CC[C@@H](Nc2ccc3ncnc(Nc4ccc(Oc5ccn6ncnc6c5)c(C)c4)c3n2)C1 [Compound 44, 1-[(3R)-3-({4-[(3-methyl-4-{[1,2,4]triazolo[1,5-a]pyridin-7-yloxy}phenyl)amino]pyrido[3,2-d]pyrimidin-6-yl}amino)pyrrolidin-1-yl]prop-2-en-1-one] | 6.33 nM | 268 nM | 2.58 nM |
| C=CC(=O)N1CCN(c2ncc3ncnc(Nc4ccc(Oc5ccn6ncnc6c5)c(C)c4)c3n2)CC1 [Compound 45, 1-(4-{8-[(3-methyl-4-{[1,2,4]triazolo[1,5-a]pyridin-7-yloxy}phenyl)amino]pyrimido[5,4-d][1,3]diazin-2-yl}piperazin-1-yl)prop-2-en-1-one] | 9.23 nM | 667 nM | 4.5 nM |
| C=CC(=O)N1CCCC2(C1)CN(c1ccc3ncnc(Nc4ccc(Oc5ccn6ncnc6c5)c(C)c4)c3n1)C2 [Compound 46, 1-(2-{4-[(3-methyl-4-{[1,2,4]triazolo[1,5-a]pyridin-7-yloxy}phenyl)amino]pyrido[3,2-d]pyrimidin-6-yl}-2,6-diazaspiro[3.5]nonan-6-yl)prop-2-en-1-one] | 45.3 nM | > 10000 nM | 24.6 nM |
| C=CC(=O)N1CCN(c2ccc3ncnc(Nc4ccc(Oc5ccc6c(c5)ncn6C)c(C)c4)c3n2)C[C@@H]1C [Compound 47, 1-[(2S)-2-methyl-4-[4-({3-methyl-4-[(1-methyl-1,3-benzodiazol-5-yl)oxy]phenyl}amino)pyrido[3,2-d]pyrimidin-6-yl]piperazin-1-yl]prop-2-en-1-one] | 30 nM | 2440 nM | 14 nM |
| C=CC(=O)N1CCN(c2ccc3ncnc(Nc4ccc(Oc5ccc6c(c5)ncn6C)c(C)c4)c3n2)C[C@H]1C [Compound 48, 1-[(2R)-2-methyl-4-[4-({3-methyl-4-[(1-methyl-1,3-benzodiazol-5-yl)oxy]phenyl}amino)pyrido[3,2-d]pyrimidin-6-yl]piperazin-1-yl]prop-2-en-1-one] | 33.2 nM | 1200 nM | 18.3 nM |
| C=CC(=O)N1CC[C@H](Oc2ccc3ncnc(Nc4ccc(Oc5ccc6c(c5)ncn6C)c(C)c4)c3n2)C1 [Compound 49, 1-[(3S)-3-{[4-({3-methyl-4-[(1-methyl-1,3-benzodiazol-5-yl)oxy]phenyl}amino)pyrido[3,2-d]pyrimidin-6-yl]oxy}pyrrolidin-1-yl]prop-2-en-1-one] | 56.9 nM | 346 nM | 15.7 nM |
| CC#CC(=O)N1CC[C@H](Oc2ccc3ncnc(Nc4ccc(Oc5ccc6c(c5)ncn6C)c(C)c4)c3n2)C1 [Compound 50, 1-[(3S)-3-{[4-({3-methyl-4-[(1-methyl-1,3-benzodiazol-5-yl)oxy]phenyl}amino)pyrido[3,2-d]pyrimidin-6-yl]oxy}pyrrolidin-1-yl]but-2-yn-1-one] | 480 nM | > 10000 nM | 52 nM |
| C=CC(=O)N1CCN(c2ccc3ncnc(Nc4ccc(Cc5ccn6ncnc6c5)c(C)c4)c3n2)C[C@H]1C [Compound 51, 1-[(2R)-2-methyl-4-{4-[(3-methyl-4-{[1,2,4]triazolo[1,5-a]pyridin-7-ylmethyl}phenyl)amino]pyrido[3,2-d]pyrimidin-6-yl}piperazin-1-yl]prop-2-en-1-one] | 20.9 nM | 1670 nM | 5.71 nM |
| C=CC(=O)N1CCN(c2cc3c(Nc4ccc(Cc5ccn6ncnc6c5)c(C)c4)ncnc3cn2)C[C@H]1C [Compound 52, (R)-1-(4-(4-((4-([1,2,4]triazolo[1,5-a]pyridin-7-ylmethyl)-3-methylphenyl)amino)pyrido[3,4-d]pyrimidin-6-yl)-2-methylpiperazin-1-yl)prop-2-en-1-one] | 50.6 nM | > 10000 nM | 120 nM |
| C=CC(=O)N1CCN(c2ccc3ncnc(Nc4ccc(Cc5ccc6c(c5)ncn6C)c(C)c4)c3n2)C[C@H]1C [Compound 53, 1-[(2R)-2-methyl-4-[4-({3-methyl-4-[(1-methyl-1,3-benzodiazol-5-yl)methyl]phenyl}amino)pyrido[3,2-d]pyrimidin-6-yl]piperazin-1-yl]prop-2-en-1-one] | 35.4 nM | 1460 nM | 14 nM |

Further lines, with some results ahead:

| IC50 [1] | IC50 [2] | Compound | GI50 (Ba/F3 ERBB2 YVMA) |
| --- | --- | --- | --- |
| 21.9 nM | 2420 nM | C=CC(=O)N1CCN(c2ccc3ncnc(Nc4ccc(Cc5ccc6c(c5)ncn6C)c(C)c4)c3c2)C[C@H]1C [Compound 54, 1-[(2R)-2-methyl-4-[4-({3-methyl-4-[(1-methyl-1,3-benzodiazol-5-yl)methyl]phenyl}amino)quinazolin-6-yl]piperazin-1-yl]prop-2-en-1-one] | 48.2 nM |
| 12 nM | 2580 nM | C=CC(=O)N1CCN(c2cc3c(Nc4ccc(Oc5ccn6ncnc6c5)c(C)c4)ncnc3cn2)C[C@H]1C [Compound 55, 1-[(2R)-2-methyl-4-{4-[(3-methyl-4-{[1,2,4]triazolo[1,5-a]pyridin-7-yloxy}phenyl)amino]pyrido[3,4-d]pyrimidin-6-yl}piperazin-1-yl]prop-2-en-1-one] | 18.5 nM |
| 14.8 nM | 1050 nM | C=CC(=O)N1CCN(c2ncc3ncnc(Nc4ccc(Oc5ccn6ncnc6c5)c(C)c4)c3n2)C[C@H]1C [Compound 56, 1-[(2R)-2-methyl-4-{8-[(3-methyl-4-{[1,2,4]triazolo[1,5-a]pyridin-7-yloxy}phenyl)amino]pyrimido[5,4-d][1,3]diazin-2-yl}piperazin-1-yl]prop-2-en-1-one] | 7.86 nM |
| 25.8 nM | 2880 nM | C=CC(=O)N1CCN(c2ncc3ncnc(Nc4ccc(Oc5ccc6c(c5)ncn6C)c(C)c4)c3n2)C[C@H]1C [Compound 57, (R)-1-(2-methyl-4-(8-((3-methyl-4-((1-methyl-1H-benzo[d]imidazol-5-yl)oxy)phenyl)amino)pyrimido[5,4-d]pyrimidin-2-yl)piperazin-1-yl)prop-2-en-1-one] | 21 nM |
| 31.4 nM | 2460 nM | C=CC(=O)N1CCN(c2ccc3ncnc(Nc4ccc(Oc5ccc6c(c5)ncn6C)c(C)c4)c3c2)C[C@H]1C [Compound 58, 1-[(2R)-2-methyl-4-[4-({3-methyl-4-[(1-methyl-1,3-benzodiazol-5-yl)oxy]phenyl}amino)quinazolin-6-yl]piperazin-1-yl]prop-2-en-1-one] | 24.1 nM |
| 20.1 nM | 3800 nM | C=CC(=O)N1CCN(c2cc3c(Nc4ccc(Oc5ccc6c(c5)ncn6C)c(C)c4)ncnc3cn2)C[C@H]1C [Compound 59, 1-[(2R)-2-methyl-4-[4-({3-methyl-4-[(1-methyl-1,3-benzodiazol-5-yl)oxy]phenyl}amino)pyrido[3,4-d]pyrimidin-6-yl]piperazin-1-yl]prop-2-en-1-one] | 27.4 nM |
| 23.7 nM | 3780 nM | C=CC(=O)N1[C@H](C)CN(c2ccc3ncnc(Nc4ccc(Oc5ccn6ncnc6c5)c(C)c4)c3n2)C[C@@H]1C [Compound 60, 1-(cis-4-(4-((4-([1,2,4]triazolo[1,5-a]pyridin-7-yloxy)-3-methylphenyl)amino)pyrido[3,2-d]pyrimidin-6-yl)-2,6-dimethylpiperazin-1-yl)prop-2-en-1-one] | 14.3 nM |

Reference: patent publication US20250136595A1, “ACYLATED HETEROCYCLIC QUINAZOLINE DERIVATIVES AS INHIBITORS OF ERBB2” (Enliven Inc., priority 2022, published 2025)
